The results in this text go back to patent publication US20250270215A1, “IMIDAZOLE DERIVATIVES AS ALK5 INHIBITORS” (CHIESI FARMACEUTICI S.P.A., priority 2022, published 2025).

Sequence of human ALK5 (P36897 80-503 limits assumed): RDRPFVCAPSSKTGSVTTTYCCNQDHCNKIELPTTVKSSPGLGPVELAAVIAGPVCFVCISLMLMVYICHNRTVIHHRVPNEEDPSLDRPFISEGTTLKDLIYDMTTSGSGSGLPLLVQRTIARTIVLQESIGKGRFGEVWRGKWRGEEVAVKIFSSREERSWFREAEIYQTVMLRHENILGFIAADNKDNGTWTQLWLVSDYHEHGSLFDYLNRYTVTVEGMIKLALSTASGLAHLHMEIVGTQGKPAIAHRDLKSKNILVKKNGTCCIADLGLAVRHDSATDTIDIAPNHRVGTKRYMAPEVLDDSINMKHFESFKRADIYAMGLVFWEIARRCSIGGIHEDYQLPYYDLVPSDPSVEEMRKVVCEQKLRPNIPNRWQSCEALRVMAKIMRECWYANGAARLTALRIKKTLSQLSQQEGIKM

The target in the test is human ALK5 (Homo sapiens (Human), UniProt P36897). The test can be described thus: ADP-GLO Kinases assay (ALK5 enzymatic activity). The test is classed as biochemical. As to conditions: purified recombinant human ALK5 2.6 nM, TGFβ1 peptide substrate, 25° C., 150 min incubation, ADP-Glo detection. Here is the method:
The enzymatic activity of compounds of the present invention was monitored measuring the formation of ADP using the ADP-GLO Kinases assay. Following the incubation of the purified enzyme, a substrate and ATP, the produced ADP was converted into ATP, which in turn was converted into light by Ultra-Glo Luciferase. The luminescent signal positively correlated with ADP amount and kinase activity. Briefly, the kinase reaction was performed by incubating 2.6 nM of the purified, commercially available human ALK5 (recombinant TGF β1 N-term GST-tagged, 80-end), a final concentration of TGFβ1 peptide 94.5 μM (Promega, T36-58) and ultra-pure ATP (Promega V915B). The ATP concentration was set at the Km value (concentration of substrate which permits the enzyme to achieve half maximal velocity (Vmax)) of ALK5 (5 μM). All reactions/incubations were performed at 25° C. Compound and ALK5 kinase were mixed and incubated for 15 mins. Reactions were initiated by addition of ATP at a final concentration in the assay of 0.83 μM. After an incubation of 150 min, the reaction was stopped, and ADP production detected with ADP-Glo kit according to manufacturer's indications. The assay was performed in 384-well format and was validated using a selection of reference compounds that was tested in 11 point concentration-response curve.
Consider `Cc1cccc(-c2nc3n(c2-c2ccc4nnsc4c2)CCN3)n1` [Example 31, 6-(6-(6-Methylpyridin-2-yl)-2,3-dihydro-1H-imidazo[1,2-a]imidazol-5-yl)benzo[d][1,2,3] thiadiazole], for which the IC50 is under 1 nM.
As to `CCN1CCn2c1nc(-c1cccc(C)n1)c2-c1cc2cnccc2s1` [Example 42, 2-(1-Ethyl-5-{thieno[3,2-c]pyridin-2-yl}-1H,2H,3H-imidazo[1,2-a] [1,3]diazol-6-yl)-6-methylpyridine], the IC50 lay in the range of 1 to 5 nM.
Then `CCN1CCn2c1nc(-c1cccc(C)n1)c2-c1ccc2ncsc2c1` [Example 33, 6-[1-Ethyl-6-(6-methylpyridin-2-yl)-1H,2H,3H-imidazo[1,2-a][1,3]diazol-5-yl]-1,3-benzothiazole], with under 1 nM; and `CCOC(=O)C1Cn2c(nc(-c3cccc(C)n3)c2-c2ccc3ncnn3c2)N1` (stereo not shown) [Example 26, Ethyl 6-(6-methylpyridin-2-yl)-5-{[1,2,4]triazolo[1,5-a]pyridin-6-yl}-1H,2H,3H-imidazo[1,2-a][1,3]diazole-2-carboxylate], with 1 to 5 nM.
Then `Cc1cccc(-c2nc3n(c2-c2ccc4nc(N)sc4c2)CCN3)n1` [Example 48, 6-(6-(6-Methylpyridin-2-yl)-2,3-dihydro-1H-imidazo[1,2-a]imidazol-5-yl)benzo[d] thiazol-2-amine], with 1 to 5 nM.
For the compound `Cc1cccc(-c2nc3n(c2-c2cccc4ncsc24)CCN3)n1` [Example 15], the IC50 lay within 5 to 10 nM.
Take `Cn1ccc(-c2nc3n(c2-c2ccc4ncnn4c2)CCN3)n1` [Example 8, 6-(6-(1-Methyl-1H-pyrazol-3-yl)-2,3-dihydro-1H-imidazo[1,2-a]imidazol-5-yl)-[1,2,4]triazolo[1,5-a]pyridine]: the IC50 lay in the range of 5 to 10 nM.
Turning to `Cc1cccc(-c2nc3n(c2-c2cc4cnccc4s2)CC(CC(=O)O)N3)n1` (stereo not shown) [Example 21, 2-[6-(6-Methylpyridin-2-yl)-5-{thieno[3,2-c]pyridin-2-yl}-1H,2H,3H-imidazo[1,2-a][1,3]diazol-2-yl]acetic acid], the IC50 lay within 1 to 5 nM.
As for `CCOC(=O)CC1Cn2c(nc(-c3cccc(C)n3)c2-c2cc3cnccc3s2)N1` (stereo not shown) [Example 20, Ethyl 2-[6-(6-methylpyridin-2-yl)-5-{thieno[3,2-c]pyridin-2-yl}-1H,2H,3H-imidazo[1,2-a][1,3]diazol-2-yl] acetate], the half-inhibitory concentration (IC50) lay within 1 to 5 nM.
Next, `Cc1cccc(-c2nc3n(c2-c2ccnc4[nH]ccc24)CCN3)n1` [Example 35, 4-(6-(6-Methylpyridin-2-yl)-2,3-dihydro-1H-imidazo[1,2-a]imidazol-5-yl)-1H-pyrrolo[2,3-b]pyridine]: 1 to 5 nM.
In the case of `Cc1csc(-c2nc3n(c2-c2cc4cnccc4s2)CCN3)n1` [Example 7, 2-(6-(4-Methylthiazol-2-yl)-2,3-dihydro-1H-imidazo[1,2-a]imidazol-5-yl)thieno[3,2-c]pyridine], the half-maximal inhibitory concentration (IC50) is under 1 nM.
Next, `CCN1CCn2c1nc(-c1cccc(C)n1)c2-c1ccc2ncnn2c1` [Example 22, 6-(1-Ethyl-6-(6-methylpyridin-2-yl)-2,3-dihydro-1H-imidazo[1,2-a]imidazol-5-yl)-[1,2,4]triazolo[1,5-a]pyridine]: under 1 nM.
`COc1cccc(-c2nc3n(c2-c2ccc4ncsc4c2)CCN3)n1` [Example 57, 6-[6-(6-Methoxypyridin-2-yl)-1H,2H,3H-imidazo[1,2-a][1,3]diazol-5-yl]-1,3-benzothiazole]: the IC50 was under 1 nM.
`Cc1cccc(-c2nc3n(c2-c2cc4cnccc4s2)CC(C(=O)N(C)C)N3)n1` (stereo not shown) [Example 29, N,N-Dimethyl-6-(6-methylpyridin-2-yl)-5-{thieno[3,2-c]pyridin-2-yl}-1H,2H,3H-imidazo[1,2-a][1,3]diazole-2-carboxamide]: the IC50 was 1 to 5 nM.
Then `Cc1cccc(-c2nc3n(c2-c2ccnc(N)c2)CCN3)n1` [Example 56, 4-[6-(6-Methylpyridin-2-yl)-1H,2H,3H-imidazo[1,2-a][1,3]diazol-5-yl]pyridin-2-amine], with 5 to 10 nM; and `Cc1cccc(-c2nc3n(c2-c2ccc(O)cc2)CCN3)n1` [Example 55, 4-[6-(6-Methylpyridin-2-yl)-1H,2H,3H-imidazo[1,2-a][1,3]diazol-5-yl]phenol], with 1 to 5 nM.
Then `Cc1cccc(-c2nc3n(c2-c2ccc(F)c(N)c2)CCN3)n1` [Example 43, 2-Fluoro-5-(6-(6-methylpyridin-2-yl)-2,3-dihydro-1H-imidazo[1,2-a]imidazol-5-yl) aniline], with 1 to 5 nM; and `Cc1cccc(-c2nc3n(c2-c2ccc4snnc4c2)CCN3)n1` [Example 30, 5-(6-(6-Methylpyridin-2-yl)-2,3-dihydro-1H-imidazo[1,2-a]imidazol-5-yl)benzo[d][1,2,3] thiadiazole], with 1 to 5 nM.
Regarding `Cn1ccc(-c2nc3n(c2-c2cc4cnccc4s2)CCN3)n1` [Example 9, 2-(6-(1-Methyl-1H-pyrazol-3-yl)-2,3-dihydro-1H-imidazo[1,2-a]imidazol-5-yl)thieno[3,2-c]pyridine], the 50% inhibitory concentration (IC50) lay within 1 to 5 nM.
